Where a SMILES comes first, the peptide text is derived from it. Bridges are numbered along the chain shown (N, C = ends). Roman numbers before positions name the chains, in order. [ ]: non-standard residue; d: D form. NMeW = CN[C@@H](Cc1c[nH]c2ccccc12)C(=O)O; Tle = CC(C)(C)[C@H](N)C(=O)O; dDab = NCC[C@@H](N)C(=O)O; Nle = CCCC[C@H](N)C(=O)O; Orn = NCCC[C@H](N)C(=O)O; Dab = NCC[C@H](N)C(=O)O; Dap = NC[C@H](N)C(=O)O; Sar = CNCC(=O)O
Experiments:
Assay type in all cases: cell-based
[1] = test system: human red blood cells (hRBC); experiment: Hemolysis of human red blood cells; conditions: red cells of human, 1 h
Procedure, shortened: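 hRBC washed 3× PBS; 20% v/v, ~0.9×10^9 cells/mL final. Peptide 100 μg/mL, 1 h, 37° C., 300 rpm. Spin, supernatant diluted 8×, OD540. 0% = PBS + 0.001% acetic acid; 100% = 2.5% Triton X-100. % hemolysis = OD540 peptide/OD540 full lysis × 100.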

[2] = test system: Klebsiella pneumoniae 968733; conditions: 968733
Escherichia coli 926415 = conditions: 926415
[3] = test system: Acinetobacter baumannii DSM 30008; conditions: DSM 30008
Procedure, shortened: (§1)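 Minimal inhibitory concentrations were recorded in μg/mL after the strains grew 18-20 hours at 35° C with two-fold serial peptide dilutions. The medium was Mueller-Hinton II (cation-adjusted) with 0.002% Polysorbate 80, and the inoculum was about 10^6 CFU/mL.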

[4] = test system: Pseudomonas aeruginosa ATCC 27853; conditions: ATCC 27853
Procedure, shortened: as §1

[5] = test system: Acinetobacter baumannii 872842; conditions: 872842
[6] = test system: Klebsiella pneumoniae SSI #3010; conditions: SSI #3010
Procedure, shortened: as §1

[7] = test system: Escherichia coli ATCC 25922; conditions: ATCC 25922
Procedure, shortened: as §1

| SMILES | Hemolysis at 100 μg/mL [1]; 100 [%] | Klebsiella pneumoniae 968733 MIC [2] [µg/mL] | Escherichia coli 926415 MIC (Escherichia coli 926415) [µg/mL] | Acinetobacter baumannii DSM 30008 MIC [3] [µg/mL] | Pseudomonas aeruginosa ATCC 27853 MIC [4] [µg/mL] | Acinetobacter baumannii 872842 MIC [5] [µg/mL] | Klebsiella pneumoniae SSI #3010 MIC [6] [µg/mL] | Escherichia coli ATCC 25922 MIC [7] [µg/mL] | Hemolysis at 100 μg/mL ([1]; 100 μg/mL) [%] |
| --- | --- | --- | --- | --- | --- | --- | --- | --- | --- |
| CC(C)C[C@@H]1NC(=O)[C@@H](CC(C)C)NC(=O)[C@H](CCN)NC(=O)[C@@H](NC(=O)[C@H](CCN)NC(=O)CN(C)C(=O)C[C@@H]2NC(=O)[C@H](CCN)NC(=O)[C@H](Cc3ccc(O)cc3)NC(=O)[C@H](CO)NC(=O)[C@H](CC(C)C)NC(=O)[C@@H]3CCCN3C(=O)[C@H]3CCCN3C(=O)[C@H](CO)NC(=O)[C@H](C)NC(=O)[C@H](C(C)C)NC(=O)[C@H](CCN)NC(=O)[C@H](Cc3c[nH]c4ccccc34)NC(=O)[C@H](CCN)NC(=O)[C@@H](CCN)NC2=O)CCNC(=O)[C@H]([C@@H](C)O)NC(=O)[C@H](CCN)NC(=O)[C@H](CCN)NC1=O [Ex. 76] (I: cyclo(W[Dab]VAS[dP]PLSY[Dab]D[dDab][Dab]) / II: [Sar][Dab][Dab][Dab][dL]L[Dab][Dab]T; amide I:12-II:N; lactam II:3-II:C) | 1 | 2 | 0.5 | 1 | 0.5 | 0.5 | 2 | 2 |  |
| CC(C)C[C@@H]1NC(=O)[C@@H](CC(C)C)NC(=O)[C@H](CCN)NC(=O)[C@@H](NC(=O)[C@H](CCN)NC(=O)[C@@H](NC(=O)[C@H](CCN)NC(=O)CN(C)C(=O)[C@@H]2CSSC[C@H](NC(=O)[C@@H](N)Cc3c[nH]c4ccccc34)C(=O)N[C@@H](C(C)C)C(=O)N[C@@H](CCCNC(=N)N)C(=O)N[C@@H](CCCNC(=N)N)C(=O)N3CCC[C@@H]3C(=O)N3CCC[C@H]3C(=O)N[C@@H](CC(C)C)C(=O)N[C@@H](CO)C(=O)N[C@@H](Cc3ccc(O)cc3)C(=O)N2)[C@@H](C)O)CCNC(=O)[C@H]([C@@H](C)O)NC(=O)[C@H](CCN)NC(=O)[C@H](CCN)NC1=O [Ex. 152] (H-WCVRR[dP]PLSYC[Sar][Dab]T[Dab][Dab][Dab][dL]L[Dab][Dab]T; disulfide 2-11; lactam 16-C) |  | 8 | 2 | 0.25 | 2 | 0.125 | 0.25 | 0.25 | 1 |
| CCCC[C@@H]1NC(=O)[C@@H]2CCCN2C(=O)[C@H]2CCCN2C(=O)[C@H](CO)NC(=O)[C@H](C)NC(=O)[C@H](C(C)(C)C)NC(=O)[C@H](CCN)NC(=O)[C@H](Cc2c[nH]c3ccccc23)NC(=O)[C@@H](NC(C)=O)CSSC[C@@H](C(=O)N[C@H](CCN)C(=O)N[C@H]2CCNC(=O)[C@H]([C@@H](C)O)NC(=O)[C@H](CCN)NC(=O)[C@H](CCN)NC(=O)[C@H](CC(C)C)NC(=O)[C@@H](Cc3ccccc3)NC(=O)[C@H](CCN)NC2=O)NC(=O)[C@H](CCCN)NC(=O)[C@H](CCN)NC(=O)[C@H](Cc2ccc(O)cc2)NC(=O)[C@H](CO)NC1=O [Ex. 60] (Ac-CW[Dab][Tle]AS[dP]P[Nle]SY[Dab][Orn]C[dDab][Dab][Dab][dF]L[Dab][Dab]T; disulfide 1-14; lactam 16-C) |  | 1 | 0.25 | 1 | 0.5 | 1 | 0.25 | 0.0625 | <1 |
| CCCC[C@@H]1NC(=O)[C@@H]2CCCN2C(=O)[C@H]2CCCN2C(=O)[C@H](CO)NC(=O)[C@H](C)NC(=O)[C@H](C(C)(C)C)NC(=O)[C@@H](NC(=O)[C@H](Cc2c[nH]c3ccccc23)NC(=O)[C@@H](N)CCC(=O)O)CSSC[C@@H](C(=O)N[C@@H](CCN)C(=O)N[C@H](C(=O)N[C@@H](CCN)C(=O)N[C@H]2CCNC(=O)[C@H]([C@@H](C)O)NC(=O)[C@H](CCN)NC(=O)[C@H](CCN)NC(=O)[C@H](CC(C)C)NC(=O)[C@@H](Cc3ccccc3)NC(=O)[C@H](CCN)NC2=O)[C@@H](C)O)NC(=O)[C@H](Cc2ccc(O)cc2)NC(=O)[C@H](CO)NC1=O [Ex. 40] (H-EWC[Tle]AS[dP]P[Nle]SYC[Dab]T[Dab][Dab][Dab][dF]L[Dab][Dab]T; disulfide 3-12; lactam 16-C) |  | 4 | 0.5 | 0.25 | 0.5 | 0.125 | 0.25 | 0.125 | 2 |
| CCCC[C@@H]1NC(=O)[C@@H]2CCCN2C(=O)[C@H]2CCCN2C(=O)[C@H](CO)NC(=O)[C@H](C)NC(=O)[C@H](C(C)(C)C)NC(=O)[C@@H](NC(=O)[C@H](Cc2c[nH]c3ccccc23)NC(=O)[C@@H](N)[C@@H](C)O)CSSC[C@@H](C(=O)N[C@@H](CCN)C(=O)N[C@H](C(=O)N[C@@H](CCN)C(=O)N[C@H]2CCNC(=O)[C@H]([C@@H](C)O)NC(=O)[C@H](CCN)NC(=O)[C@H](CCN)NC(=O)[C@H](CC(C)C)NC(=O)[C@@H](Cc3ccccc3)NC(=O)[C@H](CCN)NC2=O)[C@@H](C)O)NC(=O)[C@H](Cc2ccc(O)cc2)NC(=O)[C@H](CO)NC1=O [Ex. 43] (H-TWC[Tle]AS[dP]P[Nle]SYC[Dab]T[Dab][Dab][Dab][dF]L[Dab][Dab]T; disulfide 3-12; lactam 16-C) |  | 0.5 | 1.5 | 0.5 | 0.5 | 1.5 | 0.25 | 0.125 | 1 |
| CCCC[C@@H]1NC(=O)[C@@H]2CCCN2C(=O)[C@H]2CCCN2C(=O)[C@H](CO)NC(=O)[C@H](C)NC(=O)[C@H](C(C)(C)C)NC(=O)[C@@H](NC(=O)[C@H](Cc2c[nH]c3ccccc23)NC(C)=O)CSSC[C@@H](C(=O)N[C@@H](CCN)C(=O)N[C@@H](CN)C(=O)N[C@H]2CCNC(=O)[C@H]([C@@H](C)O)NC(=O)[C@H](CCN)NC(=O)[C@H](CCN)NC(=O)[C@H](CC(C)C)NC(=O)[C@@H](Cc3ccccc3)NC(=O)[C@H](CCN)NC2=O)NC(=O)[C@H](Cc2ccc(O)cc2)NC(=O)[C@H](CO)NC1=O [Ex. 50] (Ac-WC[Tle]AS[dP]P[Nle]SYC[Dab][Dap][Dab][Dab][dF]L[Dab][Dab]T; disulfide 2-11; lactam 14-C) |  | 2 | 0.5 | 0.25 | 1 | 0.5 | 0.25 | 0.25 | 1 |
| CN[C@@H](Cc1c[nH]c2ccccc12)C(=O)N[C@H]1CSSC[C@@H](C(=O)N(C)CC(=O)N[C@@H](CCN)C(=O)N[C@H](C(=O)N[C@@H](CCN)C(=O)N[C@H]2CCNC(=O)[C@H]([C@@H](C)O)NC(=O)[C@H](CCN)NC(=O)[C@H](CCN)NC(=O)[C@H](CC(C)C)NC(=O)[C@@H](CC(C)C)NC(=O)[C@H](CCN)NC2=O)[C@@H](C)O)NC(=O)[C@H](Cc2ccc(O)cc2)NC(=O)[C@H](CN)NC(=O)[C@H](CC(C)C)NC(=O)[C@@H]2CCCN2C(=O)[C@H]2CCCN2C(=O)[C@H](Cc2ccc(O)cc2)NC(=O)[C@H](C)NC(=O)[C@H](C(C)C)NC1=O [Ex. 143] (H-[NMeW]CVAY[dP]PL[Dap]YC[Sar][Dab]T[Dab][Dab][Dab][dL]L[Dab][Dab]T; disulfide 2-11; lactam 16-C) |  | 0.125 | 0.0625 | 0.0625 | 0.25 | 0.0625 | 0.125 | 0.03125 | <1 |
| CC(C)C[C@@H]1NC(=O)[C@@H](CC(C)C)NC(=O)[C@H](CCN)NC(=O)[C@@H](NC(=O)[C@H](CCN)NC(=O)[C@@H](NC(=O)[C@H](CCN)NC(=O)CNC(=O)[C@@H]2CSSC[C@H](NC(=O)[C@@H](N)Cc3c[nH]c4ccccc34)C(=O)N[C@@H](C(C)C)C(=O)N[C@@H](C)C(=O)N[C@@H](CO)C(=O)N3CCC[C@@H]3C(=O)N3CCC[C@H]3C(=O)N[C@@H](CC(C)C)C(=O)N[C@@H](CO)C(=O)N[C@@H](Cc3ccc(O)cc3)C(=O)N2)[C@@H](C)O)CCNC(=O)[C@H]([C@@H](C)O)NC(=O)[C@H](CCN)NC(=O)[C@H](CCN)NC1=O [Ex. 131] (H-WCVAS[dP]PLSYCG[Dab]T[Dab][Dab][Dab][dL]L[Dab][Dab]T; disulfide 2-11; lactam 16-C) |  | 0.25 | 0.25 | 0.125 | 0.5 | 0.125 | 0.125 | 0.0625 | <1 |
